Assay results: patent US7432045B2 (priority 2003, dated 2008)
pIC50: −log10 of the molar value. Where two headings read alike, the source gives them in different places. Peptide text beside a SMILES is read from it.

Legend:
[1] = tested on: cornea; test: In vivo peptide toxicity, cornea; set-up: species or system BALB/C mice; details: for blepharitis: four times a day for seven days
Method: (i) Cornea: Four-6-week-old female BALB/C mice (Harlan Sprague Dawley, Indianapolis, Ind.) were anesthetized by halothane inhalation (3-5%). A 2.0 μL drop of serum-free 5×DMEM solution containing 6.1 mM EB, 6.1 mM EBX, 7.5 mM TAT-C, 7.5 mM n50,51 TAT-C, 7.5 mM TAT-Cd, or 11.2 mM bHOMd or serum-free DMEM only (control) was then placed on the cornea and the mice were returned to their cages. Each group consisted of 5 mice, except for 11.2 mM bHOMd, and 7.5 mM TAT-Cd, which consisted of 4 mice. Only the right eye in each mouse received the peptide. Treatments were given 4 times per day at least 2 hrs apart for 7 days. On days 1, 5, and 7, the mice were examined microscopically for evidence of blepharitis, punctate keratopathy, dendrite ulceration and geographic ulceration. Damage to the corneal epithelium was assessed by staining with 1.0% […] and examination under a microscope with blue light. Blepharitis was scored: 1+ for noticeable puffy eyelids, 2+ for puffy eyelids with moderate crusting, 3+ for eye 50% swollen shut with severe crusting, and 4+ for eye totally swollen and crusted shut (Brandt et al., 1992). Punctate keratopathy, dendrite ulceration, and geographic ulceration were scored: 1+ for <25% of the cornea involved, 2+ for 25-50% involved, 3+ for 50-75% involved, and 4+ for >75% involved. The mean disease score for each group of mice on each day was calculated by the sum of disease scores in each group on each day divided by the numbers of mice in that group. On day 7, following the last treatment, the mice were sacrificed and the eyes were removed, fixed in 10% formalin, embedded in paraffin, sectioned (5μ each), and stained with hematoxylin and eosin as we have described previously (Brandt et al., 1996). Sections were then examined for evidence of damage to the cornea, sclera, lens, and retina.

[2] = tested on: HSV-1 KOS mutant hrR3; test: LacZ+ virus (hrR3) entry assay with pre-adsorbed virus (entry block); type: cell-based
[3] = tested on: Vero, HeLa, CV-1PD, TM-1, DP-9, CEMx174, NIKS, W12E cells; test: MTS assay, eight cell lines; details: for cytotoxicity to cells (MTS), overall: eight cell lines
[4] = tested on: Influenza virus strain PR8; set-up: species or system mice; details: mouse, in vivo
[5] = tested on: hrR3
[6] = tested on: hrR3 virions; test: Trypsinization of peptide-treated virions; type: cell-based, HSV-1; details: for pIC50: 1 h at 37° C.

In the case of CC(C)C[C@H](NC(=O)[C@H](C)NC(=O)[C@H](CC(C)C)NC(=O)[C@H](CC(C)C)NC(=O)[C@@H](NC(=O)[C@H](C)NC(=O)[C@@H]1CCCN1C(=O)[C@H](CC(C)C)NC(=O)[C@H](CC(C)C)NC(=O)[C@H](C)NC(=O)[C@@H](NC(=O)[C@H](C)NC(=O)[C@H](C)NC(=O)[C@H](CCCCN)NC(=O)[C@H](CCCCN)NC(=O)[C@H](CCCNC(=N)N)NC(=O)[C@@H](N)CCCNC(=N)N)C(C)C)C(C)C)C(=O)N[C@@H](CC(C)C)C(=O)N[C@@H](C)C(=O)N1CCC[C@H]1C(=O)O [EB] (H-RRKKAAVALLPAVLLALLAP-OH), the blepharitis [1] was “no effect”, the corneal pathology ([1]; mouse, in vivo) was “no evidence of corneal pathology” and the “reduction of the number of lacZ+ cells” value ([2]; 25 μM peptide, pre-adsorbed virus) was greater than 90%. The virus entry inhibited ([2]; 50 μM, 1 hour periods between 1 and 4 hours post-infection) was 70-80%, the pIC50 ([2]; FIG. 7B, read-out: inhibition of entry of pre-adsorbed virus IC50) was 4.82 and the pIC50 ([2]; read-out: Entry Blocking Activity IC50) was 4.59 to 4.82. For the same compound, the “cytotoxicity to cells (MTS), overall” value [3] was “generally not cytotoxic”, the mice protected [4] was 90% and the “time needed to induce cellular resistance” value ([5]; 30 μM peptide, 37° C.) was “almost instantaneously”. The “reversibility of resistance induced at 4° C. by rinsing with 0.5 M NaCl” value ([5]; induced at 4° C.) was “only partially reversible”, the “reversibility of resistance induced at 37° C. by rinsing with 0.5 M NaCl” value ([5]; induced at 37° C.) was “completely irreversible” and the pIC50 ([5]; read-out: IC50 for rendering cells resistant to subsequent viral infection in the absence of peptide, cells exposed 1 h at 37° C., peptide rinsed off) was 5.64. It also gave a pIC50 ([5]; read-out: IC50 of cellular resistance after 8.5 h in peptide-free medium, 8.5 h after first exposure) of less than 4.00, a pIC50 ([5]; read-out: IC50 of cellular resistance, first exposure, infected immediately after 1 h exposure) of 5.40 and a pIC50 ([5]; read-out: IC50 of cellular resistance, second exposure, second exposure 8.5 h after the first) of 5.60. For the same compound, the “effect of trypsin on infectivity of peptide-treated virions” value [6] was “did not have any effect”.

For N=C(N)NCCC[C@H](NC(=O)CN)C(=O)N[C@@H](CCCCN)C(=O)N[C@@H](CCCCN)C(=O)N[C@@H](CCCNC(=N)N)C(=O)N[C@@H](CCCNC(=N)N)C(=O)N[C@@H](CCC(N)=O)C(=O)N[C@@H](CCCNC(=N)N)C(=O)N[C@@H](CCCNC(=N)N)C(=O)N[C@@H](CCCNC(=N)N)C(=O)N[C@@H](CS)C(=O)O [TAT-C, NH2-GRKKRRQRRRC-COOH], the blepharitis [1] was “mild blepharitis”, the pIC50 ([2]; 33° C., read-out: Entry Block 33° C. IC50) was 5.52 and the pIC50 ([2]; 33° C., read-out: Entry Block IC50) was 5.52. For the same compound, the pIC50 ([2]; 33° C., read-out: inhibition of entry IC50) was 5.52, the pIC50 ([2]; 37° C., read-out: Entry Block 37° C. IC50) was 5.51 and the “temperature dependence of inhibition of entry and virus inactivation” value ([2]; FIGS. 16A, B) was “completely temperature-independent”. The “concentration at which not toxic (MTS)” value ([3]; all cell lines tested) was greater than 400 µM, the “cytotoxicity to cells (MTS), overall” value [3] was “generally not cytotoxic” and the mice protected [4] was 90%. For the same compound, the “inhibition after rinsing with 0.5 M NaCl” value ([5]; 30 μM peptide 1 h at 4° C.) was “completely reversed”, the infection blocked ([5]; 30 μM peptide 1 h at 4° C., rinsed with culture medium alone) was 50% and the “effect of trypsin on infectivity of peptide-treated virions” value [6] was “no effect on virus infectivity”. It also gave a pIC50 ([6]; read-out: IC50 after exposure of treated virus to 0.01% active trypsin) of 4.07 and a pIC50 ([6]; read-out: IC50 after exposure of treated virus to inactivated trypsin) of 4.05.
